Assay results published in patent US20190071670A1, “Methods Of Treatment For Alpha-1 Antitrypsin Deficiency” (Arrowhead Pharmaceuticals, Inc., priority 2016, published 2019).

Key:
[1] = system: hAAT mRNA; assay: Liver hAAT mRNA levels in PiZ mice (RT-qPCR); format: in vivo, human (expressed in PiZ mice); conditions: for hAAT mRNA in liver reduced: 6 month old female PiZ mice, single IV 8 mg/kg + 8 mg/kg MLP delivery polymer; for Average relative mRNA level (hAAT) / hAAT mRNA level: PiZ mice liver; for Average relative mRNA level (hAAT): one injection 8 mg/kg + 8 mg/kg MLP delivery polymer; for hAAT mRNA level: single IV 6 mg/kg with 6 mg/kg MLP delivery polymer, relative to mouse β-actin mRNA
Experimental: Compositions comprising double-stranded AAT expression-inhibiting oligomeric compounds were administered to PiZ mice. PiZ mice harbor the human PiZ AAT mutant allele and model human AATD (Carlson et al. Journal of Clinical Investigation 1989). […] Liver hAAT mRNA production was measured at days 3 and 10. Reduced mRNA levels correlated with decreased serum hAAT protein levels, except that mRNA reduction preceded protein reduction by a few days. The level of liver hAAT mRNA production was measured at day 3 and day 10 following a single dose of AAT RNAi agent with MLP delivery polymer in PiZ mice. A sustained decrease in liver hAAT mRNA levels was observed that correlated with the decrease observed in serum hAAT protein levels.
(§1) Human AAT protein levels in serum were monitored for 29 days. At the indicated times, blood samples were collected and assayed for hAAT by ELISA. Day 1 samples were collected prior to trigger administration. For mRNA analysis, 3-4 mice were euthanized at each of days 3, 8, 15, 22, and 29. For euthanized mice, cardiac stick were performed for serum isolation for AAT ELISA (200 μl serum). Half of the left lateral liver lobe was collected and snap-freeze in liquid nitrogen for RNA isolation. The remainder of the left lobes were embedded into paraffin blocks for PAS-D staining with hematoxylin as counter-stain. Serum hAAT levels in mice given AAT Duplex Pair SEQ ID NO: 5/6 were 95% reduced on day 8 and remained reduced to day 29, at which time they were 79% reduced. Mice given AAT Duplex Pair SEQ ID NO: 5/6 were euthanized at either day 3, 8, 15, 22 or 29. Mice given saline or Luciferase siRNA control (SEQ ID 7/8) were euthanized on day 29. Levels of hAAT mRNA in the livers were measured by RT-qPCR. The hAAT mRNA in mice given AAT Duplex Pair SEQ ID NO: 5/6 was reduced by 97% on day 3 and remained reduced on day 29, at which time levels were 56% reduced. The size of the globules and the area of the liver covered by globules was digitally quantitated from liver specimens stained with PAS-D. Duplex Pair SEQ ID NO: 5/6 treated mice had 70% smaller globules at day 15 and 62% smaller globules at day 29. The area of the liver covered with globules was 83% reduced on day 15 and 72% reduced on day 29 (FIG. 5).

[2] = system: Z-AAT globules; assay: PAS-D staining and digital quantitation of Z-AAT globules in PiZ mouse liver; format: in vivo, human (expressed in PiZ mice); conditions: for area of the liver covered with globules reduced / smaller globules: 6 month old female PiZ mice, single IV 8 mg/kg + 8 mg/kg MLP delivery polymer
Experimental: (§2) AAT RNAi agent was administered to PiZ mice. Each mouse received a biweekly administration of an intravenous (IV) dose of 8 mg/kg AAT RNAi agent with 8 mg/kg of MLP delivery polymer for 8 weeks. Mice were bled weekly to monitor hAAT levels in serum and were sacrificed on day 57 after administration of AAT RNAi agent with MLP delivery polymer. Liver samples were harvested and fixed in 10% neutral-buffered formalin and embedded in paraffin. Inflammatory infiltration was assessed by H&E staining. […] PiZ mice injected biweekly with saline had significant globule accumulation as well as inflammatory infiltration around damaged or dead hepatocytes. Aggregation of Z-hAAT was visualized by performing diastase-resistant periodic acid Schiff (PAS-D) staining on liver sections. Diastase digestion of glycogen prior to performing a PAS stain allows positive staining of Z-AAT protein accumulation, or “globules”. […] The number of globules, the size of the globules and the area of the liver covered by globules was digitally quantitated from liver specimens stained with PAS-D. Mice treated with AAT RNAi agent had 85% fewer globules, 85% smaller globules, and 96% less area of the liver covered with globules than saline-injected controls (FIG. 3).
as §1

[3] = system: Z-hAAT; assay: Semi-quantitative Western blot of soluble (monomer) and insoluble (polymer) Z-hAAT in PiZ mouse liver; format: in vivo, human (expressed in PiZ mice)
Experimental: A modified western blot protocol was used to separate the soluble and insoluble Z-hAAT fractions under non-denaturing conditions as previously described (Mueller et al. Molecular Therapy 2012).
PiZ mice treated biweekly with 8 mg/kg AAT RNAi agent for 32 weeks were compared with mice at start of study (baseline) and control mice injected for 32 weeks with saline vehicle. Monomeric and polymeric Z-hAAT protein in the livers of these mice were compared by semi-quantitative Western blotting (FIG. 7). […] Monomeric Z-AAT was reduced by 90% and polymeric Z-AAT was reduced by 48% in the AAT RNAi agent treated mice (p<0.0001).
One animal from each of Groups 2, 3, and 4 died prior to completion of the study. After sacrifice, monomeric and polymeric Z-hAAT protein in the livers of these mice were compared by semi-quantitative Western blotting over a course of 3 separate runs. Western blot Run 1 included six mice from Group 1, four mice from Group 2, and five mice from Group 4. Western blot Run 2 includes three mice from Group 1, six mice from Group 3 and 5 mice from Group 5. Western blot Run 3 includes three mice from Group 1, 2 mice from Group 4, 2 mice from Group 5, 7 mice from Group 6.

[4] = system: liver morphology of PiZ mice; assay: Liver histology (H&E) of PiZ mice; format: in vivo
Experimental: as §2
Baseline mice had significant globule accumulation with globules that were 5-10 microns in diameter, compressed nuclei, apoptosis and inflammatory cell infiltration. Saline treated mice had significant globule accumulation with globules that were 25-35 microns in diameter, compressed nuclei, and inflammatory cell infiltration.

[5] = system: Z-hAAT; assay: Semi-quantitative Western blot of soluble (monomer) and insoluble (polymer) Z-hAAT in PiZ mouse liver; format: in vivo, human (expressed in PiZ mice); conditions: PiZ mice liver; four biweekly IV doses 8 mg/kg with 8 mg/kg MLP delivery polymer for 8 weeks
[6] = PiZ mice, four biweekly IV doses 8 mg/kg with 8 mg/kg MLP delivery polymer over 8 weeks, PAS-D
[7] = Western blot Run 1, Group 4 (n = 5): male PiZ mice, 8 mg/kg + 4 mg/kg MLP, 20 × q2w, euthanized Week 39
[8] = male PiZ mice liver, biweekly 8 mg/kg (with MLP) for 32 weeks, p<0.0001
[9] = PiZ mice, AAT RNAi agent + MLP treated, n = 16
[10] = male PiZ mice, biweekly AAT RNAi agent with MLP (Example 9)

Duplex Pair SEQ ID NO: 5/6: double-stranded AAT RNAi agent: modified antisense strand SEQ ID NO: 5 annealed to Chol-TEG sense strand SEQ ID NO: 6 (antisense TGGAACUUGGUGAUGAUAUTT; sense UAUAUAUCAUCACCAAGUUCCAT; Chol-TEG on sense strand; chemical modifications; antisense strand of dsRNA; modified_base 7 /mod_base = “2′-3′ seco corresponding nucleotide”; modified_base 2,4,6,8,10,12,14,16,18 /mod_base = “2′-deoxy-2′-fluoro corresponding nucleoside”; modified_base 3,5,9,11,13,15,17,19 /mod_base = “2′-O-methyl corresponding nucleoside”; modified_base 21 /mod_base = “5′-phosphorothioate corresponding nucleotide”; sense strand of dsRNA; modified_base 2 /mod_base = “2′-hydroxy corresponding nucleoside”; modified_base 4,6,8,10,12,14,16,18,20,22 /mod_base = “2′-deoxy-2′-fluoro corresponding nucleoside”; …)
hAAT mRNA in liver reduced ([1]; day 3): 97% | hAAT mRNA in liver reduced ([1]; day 29): 56% | Average relative mRNA level (hAAT) ([1]; Day 3): 0.030 | Average relative mRNA level (hAAT) ([1]; Day 8): 0.032 | Average relative mRNA level (hAAT) ([1]; Day 15): 0.158 | Average relative mRNA level (hAAT) ([1]; Day 22): 0.221 | Average relative mRNA level (hAAT) ([1]; Day 29): 0.439 | hAAT mRNA level ([1]; day 3): 0.025 ± 0.02 | hAAT mRNA level ([1]; day 10): 0.055 ± 0.02 | area of the liver covered with globules reduced ([2]; day 15): 83% | smaller globules ([2]; day 15): 70% | area of the liver covered with globules reduced ([2]; day 29): 72% | smaller globules ([2]; day 29): 62% | fewer globules (number of globules) than saline-injected controls [2, 6]: 85% | less area of the liver covered with globules than saline-injected controls [2, 6]: 96% | smaller globules (size of the globules) than saline-injected controls [2, 6]: 85% | Z-hAAT monomeric protein, Average (Standard deviation) [3, 7]: 71.4 (15.6) | Z-hAAT monomeric protein, Average Normalized to Baseline (Group 1) [3, 7]: 0.126 | Z-hAAT monomeric protein, Average Normalized to Saline (Group 2) [3, 7]: 0.152 | Z-hAAT polymeric protein, Average (Standard deviation) [3, 7]: 1809.1 (932.5) | Z-hAAT polymeric protein, Average Normalized to Baseline (Group 1) [3, 7]: 0.419 | Z-hAAT polymeric protein, Average Normalized to Saline (Group 2) [3, 7]: 0.238 | Z-AAT polymer burden and diseased liver morphology ([3]; male PiZ mice 11-17 weeks old, biweekly 4, 8 or 12 mg/kg with MLP delivery polymer (2:1) for 16, 24 or 32-33 weeks): a reduction in the Z-AAT polymer burden and a reduction in the diseased liver morphology | Monomeric Z-AAT reduced [3, 8]: 90% | polymeric Z-AAT reduced [3, 8]: 48% | Score: Inflammatory foci, Moderate (number of animals) [4, 9]: 11 | Score: Inflammatory foci, None (number of animals) [4, 9]: 5 | Score: Inflammatory foci, Severe (number of animals) [4, 9]: 0 | Score: Compressed nuclei (animals/total) ([4]; PiZ mice, AAT RNAi agent + MLP treated, n = 16, baseline 7/12, saline 13/13): 3/16 | Liver morphology and inflammatory infiltration (H&E staining) ([4]; PiZ mice, biweekly IV 8 mg/kg with 8 mg/kg MLP delivery polymer for 8 weeks, day 57): normal morphology, no detectably inflammatory infiltrate and very rare, small Z-hAAT globules | compressed nuclei [4, 10]: fewer compressed nuclei than either baseline or saline-treated mice | inflammatory infiltration [4, 10]: no inflammatory infiltration | globule diameter ([4]; male PiZ mice, biweekly AAT RNAi agent with MLP (Example 9), baseline 5-10, saline 25-35 microns): 7-10 microns | globule accumulation ([4]; male PiZ mice, biweekly AAT RNAi agent with MLP (Example 9), baseline and saline: significant): minimal to moderate | reduction in insoluble Z-hAAT compared to saline [5]: 79% | reduction in soluble Z-hAAT compared to saline [5]: > 99%
